US20250387366A1, “TOPICAL OCULAR DELIVERY OF CROMAKALIM” (QLARIS BIO, INC., priority 2022, published 2025)
≈ marks a conversion by molar mass, not a printed value. Where two headings read alike, the source gives them in different places.

How the values were obtained:
[1] = tested on: patients with primary open-angle glaucoma; settings: Phase 2; cited from earlier work
[2] = Toxicokinetics of levcromakalim in plasma, BID T.O. bilateral formulation 3d for 28 days in rabbits (Example 12, Table 11); type: in vivo, rabbit; settings: for AUC(0-t) / Cmax / Tmax / half-life: DB, rabbit, plasma, topical or ocular; for tlast: in h (unit assumed)
Method: Plasma concentrations of levcromakalim were evaluated in DB rabbits after twice a day (BID) oculus uterque (OU, both eyes) topical ophthalmic (T.O.) administration of formulation 3d for 28 days at dose levels of 0, 0.012, 0.03, and 0.06 mg/eye/dose.
Plasma concentrations of levcromakalim were evaluated in DB rabbits after BID OU T.O. administration of three concentrations of formulation 3d at dose levels of 0, 0.012, 0.03, and 0.06 mg/eye/dose (0, 0.024, 0.06, and 0.12 mg/eye/day respectively or 0.030% [1.0 mM], 0.075% [2.5 mM], or 0.15% [5 mM] respectively) for 28 days. Plasma was collected from 3 animals/dose group at pre-dose, 0.5, 1, 2, 3, 4, 6, and 12 hours post-first dose on Days 1 and 28.

[3] = Solubility limit of levcromakalim in water (literature); type: physicochemical; settings: converted from 0.48 mg/ml
Text: Therefore, the Chiang Lin tested material undoubtedly had insoluble material which would have a deleterious effect on the eye and nullify the results. The Hamilton article also stated that cromakalim is soluble in ethanol, DMSO and PEG, none of which would be acceptable as the topical ocular carrier for human administration.

[4] = reported by SmithKline Beecham 1993 (Hamilton et al.); cited from earlier work
[5] = tested on: KATP channels; settings: in the presence of ATP (Brayden et al. 1991); cited from earlier work
[6] = female, 0.012 mg, females, 0.012 mg/eye/dose BID OU T.O. formulation 3d, Day 1, rabbit plasma
[7] = female, 0.012 mg, females, 0.012 mg/eye/dose BID OU T.O. formulation 3d, Day 28, rabbit plasma
[8] = female, 0.03 mg, females, 0.03 mg/eye/dose BID OU T.O. formulation 3d, Day 1, rabbit plasma
[9] = female, 0.03 mg, females, 0.03 mg/eye/dose BID OU T.O. formulation 3d, Day 28, rabbit plasma
[10] = female, 0.06 mg, females, 0.06 mg/eye/dose BID OU T.O. formulation 3d, Day 1, rabbit plasma
[11] = female, 0.06 mg, females, 0.06 mg/eye/dose BID OU T.O. formulation 3d, Day 28, rabbit plasma
[12] = females, 0.012 mg/eye/dose BID OU T.O. formulation 3d, Day 1, rabbit plasma
[13] = females, 0.012 mg/eye/dose BID OU T.O. formulation 3d, Day 28, rabbit plasma
[14] = females, 0.03 mg/eye/dose BID OU T.O. formulation 3d, Day 1, rabbit plasma
[15] = females, 0.03 mg/eye/dose BID OU T.O. formulation 3d, Day 28, rabbit plasma
[16] = females, 0.06 mg/eye/dose BID OU T.O. formulation 3d, Day 1, rabbit plasma
[17] = females, 0.06 mg/eye/dose BID OU T.O. formulation 3d, Day 28, rabbit plasma
[18] = male, 0.012 mg, males, 0.012 mg/eye/dose BID OU T.O. formulation 3d, Day 1, rabbit plasma
[19] = male, 0.012 mg, males, 0.012 mg/eye/dose BID OU T.O. formulation 3d, Day 28, rabbit plasma
[20] = male, 0.03 mg, males, 0.03 mg/eye/dose BID OU T.O. formulation 3d, Day 1, rabbit plasma
[21] = male, 0.03 mg, males, 0.03 mg/eye/dose BID OU T.O. formulation 3d, Day 28, rabbit plasma
[22] = male, 0.06 mg, males, 0.06 mg/eye/dose BID OU T.O. formulation 3d, Day 1, rabbit plasma
[23] = male, 0.06 mg, males, 0.06 mg/eye/dose BID OU T.O. formulation 3d, Day 28, rabbit plasma
[24] = males, 0.012 mg/eye/dose BID OU T.O. formulation 3d, Day 1, rabbit plasma
[25] = males, 0.012 mg/eye/dose BID OU T.O. formulation 3d, Day 28, rabbit plasma
[26] = males, 0.03 mg/eye/dose BID OU T.O. formulation 3d, Day 1, rabbit plasma
[27] = males, 0.03 mg/eye/dose BID OU T.O. formulation 3d, Day 28, rabbit plasma
[28] = males, 0.06 mg/eye/dose BID OU T.O. formulation 3d, Day 1, rabbit plasma
[29] = males, 0.06 mg/eye/dose BID OU T.O. formulation 3d, Day 28, rabbit plasma

SMILES: CC1(C)Oc2ccc(C#N)cc2[C@@H](N2CCCC2=O)[C@@H]1OP(=O)(O)O [QLS-101]
- hyperemia (eye redness) [1]: no evidence of hyperemia
- safety and tolerability profile [1]: favorable safety and tolerability profile

SMILES: CC1(C)Oc2ccc(C#N)cc2[C@@H](N2CCCC2=O)[C@@H]1O [levcromakalim]
- AUC(0-t) [2, 6]: 0.57 ng·h/mL
- Cmax [2, 6]: 0.64 ng/mL
- Tmax [2, 6]: 1.67 h
- half-life [2, 6]: 1.84 h
- AUC(0-t) [2, 7]: 0.051 ng·h/mL
- Cmax [2, 7]: 0.56 ng/mL
- Tmax [2, 7]: 0.33 h
- AUC(0-t) [2, 8]: 3.99 ng·h/mL
- Cmax [2, 8]: 1.75 ng/mL
- Tmax [2, 8]: 0.67 h
- half-life [2, 8]: 1.7 h
- AUC(0-t) [2, 9]: 3.58 ng·h/mL
- Cmax [2, 9]: 1.76 ng/mL
- Tmax [2, 9]: 0.67 h
- half-life [2, 9]: 2.19 h
- AUC(0-t) [2, 10]: 8.89 ng·h/mL
- Cmax [2, 10]: 2.85 ng/mL
- Tmax [2, 10]: 1 h
- half-life [2, 10]: 1.77 h
- Cmax [2, 11]: 2.06 ng/mL
- Tmax [2, 11]: 1.2 h
- half-life [2, 11]: 1.97 h
- AUCtlast/Dose [2, 12]: 23.74 ng·h/mL/mg
- Cmax/Dose [2, 12]: 26.67 ng/mL/mg
- tlast [2, 12]: 2.00
- AUCtlast/Dose [2, 13]: 21.11 ng·h/mL/mg
- Cmax/Dose [2, 13]: 23.21 ng/mL/mg
- tlast [2, 13]: 2.25
- AUCtlast/Dose [2, 14]: 66.44 ng·h/mL/mg
- Cmax/Dose [2, 14]: 29.22 ng/mL/mg
- tlast [2, 14]: 3.67
- AUCtlast/Dose [2, 15]: 59.64 ng·h/mL/mg
- Cmax/Dose [2, 15]: 29.41 ng/mL/mg
- tlast [2, 15]: 3.33
- AUCtlast/Dose [2, 16]: 74.06 ng·h/mL/mg
- Cmax/Dose [2, 16]: 23.73 ng/mL/mg
- tlast [2, 16]: 4.80
- AUCtlast [2, 17]: 6.05 ng·h/mL
- AUCtlast/Dose [2, 17]: 50.39 ng·h/mL/mg
- Cmax/Dose [2, 17]: 17.13 ng/mL/mg
- tlast [2, 17]: 4.80
- AUC(0-t) [2, 18]: 0.94 ng·h/mL
- Cmax [2, 18]: 0.77 ng/mL
- Tmax [2, 18]: 1.17 h
- AUC(0-t) [2, 19]: 0.14 ng·h/mL
- Cmax [2, 19]: 0.37 ng/mL
- Tmax [2, 19]: 0.33 h
- AUC(0-t) [2, 20]: 3.96 ng·h/mL
- Cmax [2, 20]: 2.26 ng/mL
- Tmax [2, 20]: 0.67 h
- half-life [2, 20]: 1.28 h
- AUC(0-t) [2, 21]: 2.53 ng·h/mL
- Cmax [2, 21]: 1.68 ng/mL
- Tmax [2, 21]: 0.5 h
- half-life [2, 21]: 2.88 h
- AUC(0-t) [2, 22]: 5.64 ng·h/mL
- Cmax [2, 22]: 2.61 ng/mL
- Tmax [2, 22]: 0.7 h
- half-life [2, 22]: 1.72 h
- Cmax [2, 23]: 2.58 ng/mL
- Tmax [2, 23]: 0.6 h
- half-life [2, 23]: 2.29 h
- AUCtlast/Dose [2, 24]: 39.23 ng·h/mL/mg
- Cmax/Dose [2, 24]: 32.12 ng/mL/mg
- tlast [2, 24]: 1.50
- AUCtlast/Dose [2, 25]: 5.78 ng·h/mL/mg
- Cmax/Dose [2, 25]: 15.40 ng/mL/mg
- tlast [2, 25]: 0.500
- AUCtlast/Dose [2, 26]: 66.06 ng·h/mL/mg
- Cmax/Dose [2, 26]: 28.88 ng/mL/mg
- tlast [2, 26]: 3.00
- AUCtlast/Dose [2, 27]: 42.11 ng·h/mL/mg
- Cmax/Dose [2, 27]: 28.05 ng/mL/mg
- tlast [2, 27]: 2.33
- AUCtlast/Dose [2, 28]: 47.04 ng·h/mL/mg
- Cmax/Dose [2, 28]: 21.78 ng/mL/mg
- tlast [2, 28]: 3.60
- AUCtlast [2, 29]: 6.11 ng·h/mL
- AUCtlast/Dose [2, 29]: 50.96 ng·h/mL/mg
- Cmax/Dose [2, 29]: 21.48 ng/mL/mg
- tlast [2, 29]: 4.20
- solubility limit in water [3]: 0.048 % w/w
- solubility limit in water [4]: 480 µg/mL (≈ 1680 µM)

SMILES: CC1(C)Oc2ccc(C#N)cc2C(N2CCCC2=O)C1O (centres unmarked) [Cromakalim]
- increase of open-state probability (Popen) of single KATP channels [5]: more than 9 fold
